{"source": "patent US20230002327A1", "about": "“SMALL-MOLECULE REGULATOR OF TLR8” (TSINGHUA UNIVERSITY, priority 2019, published 2023)", "key": {"[1]": {"tested_on": "peripheral blood mononuclear cells of patients suffering from rheumatoid arthritis", "assay": "TNF-α in PBMC of rheumatoid arthritis patients", "format": "cell-based, human", "details": "PBMC derived from rheumatoid arthritis patients (FIG. 9)", "experimental": "Approximately 8 mL of blood was collected from untreated rheumatoid arthritis patients.\nPeripheral blood mononuclear cells (PBMCs) were isolated from the whole blood derived from 6 rheumatoid arthritis patients using the lymphocyte separation medium, and the cells were seeded in a 96-well round-bottom plate at a density of 1×10^6 cells/mL immediately after the isolation (cultured in RPMI 1640 (0.25 mL/well)).\nAfterwards, cells were treated with 0, 10, 20, 40 and 80 μM Compound 24, Compound 10 was used as a negative control, and cells were placed in a cell incubator (37° C., 5% CO2) for incubation.\nAfter 24 hours, the resultant was centrifuged at 4,000 rpm/minute for 10 minutes, and then the supernatant was collected, frozen to −80° C. and used for the determination of TNF-α. Quantification was conducted using a human TNF ELISA Kit."}, "TLR8": {"molecular_target": "T1, TLR8 (Homo sapiens, UniProt Q9NR97)", "T1 construct": "host or cells: HEK-Blue hTLR8 (HEK293-derived SEAP reporter cells)", "T1 sequence (Q9NR97 27-1041)": "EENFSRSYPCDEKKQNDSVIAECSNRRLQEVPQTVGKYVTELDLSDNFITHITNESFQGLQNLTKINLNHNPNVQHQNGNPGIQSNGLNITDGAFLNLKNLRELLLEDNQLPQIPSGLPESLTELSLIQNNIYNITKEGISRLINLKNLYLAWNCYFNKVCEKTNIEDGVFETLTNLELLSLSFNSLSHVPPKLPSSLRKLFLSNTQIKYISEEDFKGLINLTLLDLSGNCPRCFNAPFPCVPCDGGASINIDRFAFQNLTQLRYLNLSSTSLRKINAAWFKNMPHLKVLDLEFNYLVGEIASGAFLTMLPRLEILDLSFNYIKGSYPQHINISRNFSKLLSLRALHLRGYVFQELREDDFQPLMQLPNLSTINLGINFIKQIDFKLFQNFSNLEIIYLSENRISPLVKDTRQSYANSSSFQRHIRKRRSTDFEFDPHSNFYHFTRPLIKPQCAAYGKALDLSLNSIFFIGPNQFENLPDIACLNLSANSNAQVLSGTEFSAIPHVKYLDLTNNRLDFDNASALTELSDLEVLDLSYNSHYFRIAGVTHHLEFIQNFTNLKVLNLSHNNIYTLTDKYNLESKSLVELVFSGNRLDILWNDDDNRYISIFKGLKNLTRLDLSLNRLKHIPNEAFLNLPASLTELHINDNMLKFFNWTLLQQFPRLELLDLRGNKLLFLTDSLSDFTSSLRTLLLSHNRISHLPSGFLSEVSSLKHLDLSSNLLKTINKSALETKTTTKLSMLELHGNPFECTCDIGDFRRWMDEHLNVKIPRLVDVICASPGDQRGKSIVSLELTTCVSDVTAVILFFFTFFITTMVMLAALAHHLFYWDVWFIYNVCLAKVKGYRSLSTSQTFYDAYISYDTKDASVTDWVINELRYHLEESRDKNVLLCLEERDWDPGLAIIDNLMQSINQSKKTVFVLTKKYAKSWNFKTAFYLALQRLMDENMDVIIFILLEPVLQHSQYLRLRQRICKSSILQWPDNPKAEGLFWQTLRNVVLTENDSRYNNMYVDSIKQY", "assay": "ssRNA40-induced signaling in HEK-Blue hTLR8 cell line", "format": "cell-based", "details": "at a concentration of 100 μM (FIG. 12)", "experimental": "HEK Blue hTLR8 cells or HEK Blue hTLR7 cells were cultured in DMEM medium supplemented with 10% fetal bovine serum, penicillin (100 U/mL) and streptomycin ([…]). Thereafter, cells were seeded in 96-well plate (45,000 cells per well), and were cultured for 24 hours in a humidified incubator (37° C., 5% CO2).\nAfter 24 hours, the supernatant and suspending cells were aspirated and replaced with fresh serum-free DMEM. Cells were treated with 1 μg/mL of R848 (agonist of TLR7/8) or 5 μg/mL of ssRNA40/LyoVec or 5 μg/mL of ORN06/LyoVec (InvivoGen) and compounds with specified concentrations, and were placed in a humidified incubator (37° C., 5% CO2) for co-culture.\nAfter 24 hours, 50 μL of the medium was aspirated from each well and then added to a new 96-well plate, followed by the addition of 50 μL of Quanti-Blue in each well and the incubation at 37° C. in darkness. Changes in color would occur in the […] within 60 minutes, and the absorbance was measured at 620 nm by using the multi-mode plate reader Vrioskan Flash. Inhibition rate (%)=[R848 (OD620)−Compound (OD620)]/[R848 (OD620)−Control (OD620)]×100%. Among these, the control group was only added with the same amount of cells. Finally, the software Prism 6.0 was utilized to plot a graph and calculate IC50 values. […]"}, "[2]": {"tested_on": "hTLR1/2, TLR2/6, TLR3, TLR4, TLR5, TLR7, TLR9", "assay": "Specificity test in HEK-Blue TLR cell lines: other TLRs", "format": "cell-based, human", "details": "at a concentration of 100 μM (FIG. 11)", "experimental": "The selectivity of compounds for receptors in TLR family was tested in HEK-Blue cells overexpressing various TLRX (x=1 to 9) respectively. The steps of this test method were the same as those mentioned above in “Activity Test of Compounds”, except that the ligands corresponding to different TLRs were used to activate the downstream signaling in the corresponding cells. Among these, ploy (I:C) (20 μg/mL), LPS (40 ng/mL), Pam3CSK4 (100 ng/mL), Pam2CSK4 (100 ng/mL), flagellin (200 ng/mL), R848 (1 μg/mL) and ODN2006 (0.5 μM) were used to selectively activate HEK-Blue hTLR3-, hTLR4-, hTLR1/2-, hTLR2/6-, hTLR5-, hTLR7- and hTLR9-overexpressing cells, respectively."}}}
{"smiles": "CSc1nnc(CCCO)n1-c1cc(C)c(C)c(C)c1", "note": "[Compound 24, 3-(5-(methylthio)-4-(3,4,5-trimethylphenyl)-4H-1,2,4-triazole-3-yl)propan-1-ol]", "values": [{"measurement": "inhibitory effect on inflammatory factor TNF-α", "setting": "[1]", "value": "significant inhibitory effect"}]}
{"smiles": "CCOCc1nc(I)c(-c2ccccc2)n1CC(C)(C)O", "note": "[Compound 53, 1-[2-(ethoxymethyl)-4-iodo-5-phenyl-1H-imidazole-1-yl]-2-methylpropan-2-ol]", "values": [{"measurement": "synergistic activating effect on ssRNA40-induced signaling", "setting": "TLR8", "value": "synergistic activating effect"}, {"measurement": "influence on other TLR signaling pathways", "setting": "[2]", "value": "no influence"}]}
